From patent US20260152395A1, “SUSTAINED-RELEASE CHLORINE DIOXIDE GAS […] AND METHOD” (ABC MEDICAL CO., LTD., priority 2022, published 2026)

Assay: Chlorine dioxide generation test 1: organic substance added to sodium chlorite solution, reactivity observed
Type: physicochemical
Parameters: key: high reaction rate (+++++) resulted in the initiation of chlorine dioxide gas generation relatively quickly within several hours to several days after the addition; intermediate reaction rate (+++) resulted in the initiation of chlorine dioxide gas generation within several days to several tens of days after the addition; The reaction initiation time of the organic substances with a slow reaction rate (+) is hard to specify
Details: organic substance added to 23% aqueous sodium chlorite; room temperature and refrigerated temperature
Description: To investigate the reactivity with and the risk of sodium chlorite depending on the type of organic substance, each of organic substances in Table 1 was added to a 23% aqueous solution of sodium chlorite to observe the reactivity at room temperature and refrigerated temperature.

| SMILES | Reaction rate |
| --- | --- |
| O=C([O-])[O-].[Na+].[Na+] [Sodium carbonate] | + |
| OC[C@@H](O)[C@@H](O)[C@H](O)[C@@H](O)CO [Sorbitol] | +++ |
| OO [Hydrogen peroxide] | No reaction |
| O=C(CO)[C@@H](O)[C@H](O)[C@H](O)CO [Fructose] | +++ |
| OCC(O)CO [Glycerol] | +++++ |
| [Na+].[OH-] [Sodium hydroxide] | No reaction |
| OC[C@H]1O[C@H](O[C@H]2O[C@H](CO)[C@@H](O)[C@H](O)[C@H]2O)[C@H](O)[C@@H](O)[C@@H]1O [Trehalose] | +++ |
| N[C@@H](CCC(=O)[O-])C(=O)[O-].[Na+].[Na+] [Sodium glutamate] | +++++ |
| [O]=[Ca] [Calcium oxide] | No reaction |
| [K+].[OH-] [Potassium hydroxide] | No reaction |
| CCO [Ethanol] | +++++ |
| O=C1NS(=O)(=O)c2ccccc21.[Na] [Sodium saccharin] | +++ |
| [Cl-].[Na+] [Salt] | No reaction |
| [Ca+2].[OH-].[OH-] [Calcium hydroxide] | No reaction |
| OC[C@H]1O[C@@](CO)(O[C@H]2O[C@H](CO)[C@@H](O)[C@H](O)[C@H]2O)[C@@H](O)[C@@H]1O [Sucrose] | +++ |
